Molecular target: T1, PKCε (h) (Homo sapiens, UniProt Q02156)
T1 construct: host or cells: insect cells
T1 sequence (Q02156 1-737): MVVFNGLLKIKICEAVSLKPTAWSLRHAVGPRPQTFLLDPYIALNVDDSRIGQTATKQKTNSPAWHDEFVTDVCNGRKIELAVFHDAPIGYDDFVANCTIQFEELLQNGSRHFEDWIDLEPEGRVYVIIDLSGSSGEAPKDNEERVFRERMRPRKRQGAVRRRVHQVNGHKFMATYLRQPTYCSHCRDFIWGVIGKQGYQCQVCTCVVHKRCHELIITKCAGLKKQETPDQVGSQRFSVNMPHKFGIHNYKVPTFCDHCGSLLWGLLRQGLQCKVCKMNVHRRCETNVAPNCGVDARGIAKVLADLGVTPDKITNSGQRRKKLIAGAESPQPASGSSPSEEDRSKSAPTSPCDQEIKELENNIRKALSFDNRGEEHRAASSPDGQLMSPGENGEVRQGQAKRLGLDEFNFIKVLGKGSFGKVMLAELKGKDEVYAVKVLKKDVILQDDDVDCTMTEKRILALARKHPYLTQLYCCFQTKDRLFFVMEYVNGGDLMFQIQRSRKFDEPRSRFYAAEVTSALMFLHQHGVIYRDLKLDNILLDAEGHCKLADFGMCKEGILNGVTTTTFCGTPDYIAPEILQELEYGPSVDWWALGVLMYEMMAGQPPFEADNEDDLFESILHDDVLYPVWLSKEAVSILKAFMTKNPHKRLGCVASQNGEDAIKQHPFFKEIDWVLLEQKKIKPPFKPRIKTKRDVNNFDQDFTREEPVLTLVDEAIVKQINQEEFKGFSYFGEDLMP
Experiment: In vitro PKCε kinase assay (radiometric, [γ-33P-ATP], HotSpot)
Format: biochemical
Details: recombinant human PKCε, 10 μM ATP; read-out: IC50 in antagonizing the PKCε
Protocol: There are many in vitro commercially available and validated bioassays (Ma, H., et al, Expert Opin Drug Discov. 2008 June; 3(6): 607-621 and references therein) which can be used to characterize the activities of compounds of the present invention against PKCε protein kinase. Compounds can be tested against the activity of recombinant PKCε. In a final reaction volume of 25 μL, PKCε (h) (0.4 nM, Human recombinant protein expressed in insect cells. Mw=83.7 kDa) is incubated with kinase buffer (20 mM HEPES-HCl, pH 7.5, 10 mM MgCl2, 1 mM EGTA, 0.02% Brij35, 0.1 mM Na3VO4, 0.02 mg/ml BSA, 2 mM DTT, and 1% DMSO), 0.1 mg/mL phosphatidylserine, 10 μg/mL diacylglycerol, 20 μM S25-PKC peptide substrate (RFARKGSLRQKNV-OH, Mw=1561 Da), 10 mM MgAcetate and 10 μM [γ-33P-ATP] (specific activity approx. 500 cpm/pmol). The reaction is initiated by the addition of the MgATP mix. After incubation for 40 minutes at room temperature, the reaction is stopped by the addition of 5 μL of a 3% phosphoric acid solution. 10 μL of the reaction is then spotted onto a P30 filtermat and washed three times for 5 minutes in 75 mM phosphoric acid and once in methanol prior to drying and scintillation counting Control samples are incubated without inhibitor to measure maximal activity or with the general kinase inhibitor Staurosporine (5 μM) to measure complete inhibition. For each compound the % inhibition can be calculated by the formula, or by curve fits: % Inhibition=(Max activity−Activity with compound)/(Max activity−Activity with Control)*100. Compounds with inhibitory activity are assayed using at least 5 concentrations (1 nM-300 μM). Concentrations are adjusted to generate a complete dose-response curve. Each sample is assayed in duplicate and each experiment is repeated three times. Results are fitted by non-linear regression analysis to a sigmoidal dose-response curve with variable slope to calculate Hill slope, log IC50 and Imax values for each inhibitor, using the program Prism 5 (GraphPad Software, Inc., San Diego, Calif.).
Kinase profiling was performed using HotSpot technology (Reaction Biology Corp. 11 Malvern, Pa., USA). This technology is a radioisotope-based P81 filter-binding assay. Compound of the present invention were dissolved in pure DMSO to make a 10 mM stock, then diluted in pure DMSO to make a serial dilution based on the IC50 ranges. PKCε (h) (0.4 nM, human recombinant protein expressed in insect cells. Mw=83.7 kDa) and substrate (20 μM peptide substrate, [RFARKGSLRQKNV]) were diluted in the reaction buffer (20 mM HEPES-HCl, pH 7.5, 10 mM MgCl2, 1 mM EGTA, 0.02% Brij35, 0.1 mM Na3VO4, 0.02 mg/ml BSA, 2 mM DTT, and 1% DMSO), and then 5 nL of compound was delivered into PKCε (h) and substrate mixture by acoustic technology using Echo 550 (LabCyte Inc., Sunnyvale, Calif.). The reaction was initiated by the addition of [γ-33P-ATP] into the reaction mixture (final concentration was 10 μM) and stopped after at least 40 min incubation at room temperature. The unreacted free 33P-ATP was washed away before detection.
The intrinsic PKCε antagonist activity of a compound which may be used in the present invention may be determined by these assays. […] Such a result is indicative of the intrinsic activity of the compounds in use as antagonists of PKCε.

IC50: 10 to 1000 nM
Compound: O=C(NCCCN1CCCC1)c1ccc(/C=C2\Sc3ccccc3N(Cc3ccccc3F)C2=O)cc1 [Compound 481, 4-{(Z/E)-[4-(2-fluorobenzyl)-3-oxo-3,4-dihydro-2H-1,4-benzothiazin-2-ylidene]methyl}-N-[3-(pyrrolidin-1-yl)propyl]benzamide]
